From publication PMC4350845, “Polyphosphatase PPN1 of Saccharomyces cerevisiae: Switching of Exopolyphosphatase and Endopolyphosphatase Activities” (PLoS ONE, 2015) come the findings set out here.

For the experiment, the target named is T1, polyphosphatase PPN1 (Saccharomyces cerevisiae, UniProt Q04119).
T1 construct: recombinant, overexpressed in S. cerevisiae CRN/pMB1_PPN1 Sc and purified; proteolytically matured form of ~33 kDa on SDS-PAGE (precursor predicted 78 kDa); no tag mentioned
T1 sequence (Q04119 84-384): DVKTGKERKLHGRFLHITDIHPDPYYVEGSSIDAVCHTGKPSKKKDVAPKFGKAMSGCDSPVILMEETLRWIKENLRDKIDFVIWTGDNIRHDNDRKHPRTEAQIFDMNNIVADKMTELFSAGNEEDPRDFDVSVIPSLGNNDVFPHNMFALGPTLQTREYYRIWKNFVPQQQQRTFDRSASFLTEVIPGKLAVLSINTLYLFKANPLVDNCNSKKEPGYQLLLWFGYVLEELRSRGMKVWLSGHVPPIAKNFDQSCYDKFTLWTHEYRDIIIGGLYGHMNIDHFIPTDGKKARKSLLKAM
In words: inhibition of exopolyphosphatase activity (Pi release from PolyP208). The settings on record: inhibitor; PolyP208 2.5 mM as Pi, 0.1 mM CoSO4, 200 mM NH4Cl, pH 7.2, 30 C. The experiment is classed as biochemical.

Regarding `O=P(O)(O)OP(=O)(O)O` [PPi], the “% of control activity at 2.0 mM” value is “PPi and PolyP3 inhibited Pi release”.

For `O=P(O)(O)OP(=O)(O)OP(=O)(O)O` [PolyP3], the “% of control activity at 2.0 mM” value is “PPi and PolyP3 inhibited Pi release”.
